Results: patent publication US20150330992A1, “RAPID DISCOVERY AND SCREENING OF ENZYME ACTIVITY USING MASS SPECTROMETRY” (THE REGENTS OF THE UNIVERSITY OF CALIFORNIA, priority 2012, published 2015)
Where two headings read alike, the source gives them in different places. One block for each compound: values may come before it.

Tests used:
cytochrome P450BM3 = molecular target: T1, cytochrome P450BM3 (Priestia megaterium, UniProt P14779); test: Whole-cell PECAN detection of cytochrome P450BM3 activity; format: cell-based, E. coli; conditions: 2 mM probe, 30° C., 16 h; versus GFP control
T1 construct: expressed in transfected cells; host or cells: E. coli liquid culture in terrific broth with d-aminolevulinic acid
Method: The CAEE PECAN probe was used to detect cytochrome P450BM3 activity in whole E. coli cell culture expressing cytochrome P450BM3 using NIMS technology. To 5 mL of E. coli liquid culture in teriffic broth supplemented with 0.5 mM d-aminolevulinic acid, expressing either GFP or cytochrome P450BM3, was added the CAEE PECAN probe to a final concentration of 2 mM and DMSO to a final concentration of 2%. The bacterial cultures were shaken in baffled borosilicate culture tubes at 30° C. for 16 h and quenched with an equal volume of methanol. 5 uL, of this mixture was then mixed with 5 uL, of click reaction solution [50 mM Tris(3-hydroxypropyltriazolylinethyl)amine (THPTA), 50 mM sodium ascorbate, 10 mM copper sulfate and 0.5 mM PECAN tag Nz-NPrg (structure shown below) in 50:50 water:methanol] and left to react overnight. NIMS analysis was performed as described above.

[1] = molecular target: T2, chloramphenicol acetyltransferase (CAT) (Escherichia coli, UniProt P62577); test: PECAN detection of CAT activity in E. coli cell lysate; format: biochemical; parameters: expressed in transfected cells; host or cells: E. coli DH1 harboring pBbB8k-CAT, arabinose-induced, sonicated lysate; conditions: cell lysate with added acetyl-CoA, 2 mM probe
Method: Acetyl-CoA was added to a final concentration of 5 mM and the ChlorHexy PECAN probe to a final concentration of 2 mM. […] 5 uL, of the mixture was then mixed with 5 uL of click reaction solution [50 mM Tris(3-hydroxypropyltriazolylmethyl)amine (THPTA), 50 mM sodium ascorbate, 10 mM copper sulfate and 0.5 mM PECAN tag Nz-N3 (structure shown below) in 50:50 water:methanol] and left to react overnight. […] The spotted area was washed with 2×1 μL deionized water and NIMS spectra were obtained.

[2] = molecular target: T2, chloramphenicol acetyltransferase (CAT); test: PECAN detection of CAT activity in whole E. coli cell culture; format: cell-based; parameters: expressed in transfected cells; host or cells: E. coli DH1 harboring pBbB8k-CAT, arabinose-induced, sonicated lysate; conditions: whole cell culture without exogenous cofactors, 2 mM probe, 1 h
Method: For the detection of CAT activity in E. coli cell culture, to 5 mL, of E. coli culture in LB medium expressing either GFP or CAT was added the ChlorHexy PECAN probe to a final concentration of 2 mM. The bacterial cultures were shaken at 37° C. for 1 h and quenched with an equal volume of methanol. 5 uL of this mixture was then mixed with 5 ul, of click reaction solution (recipe described above) and left to react overnight. NIMS analysis was performed as described above.
In FIG. 25, the 42-mass unit shift relative to the GFP control was the mass of a single acetyl group attached to the probe.

[3] = system: Alicycyclobacillus acidocaldarius β-glucosidase; test: Steady-state kinetic analysis of β-glucosidase with varied cellobiose by oxime-NIMS; format: biochemical; conditions: 95% confidence level, r^2=0.997
Method: A velocity versus substrate concentration analysis was used to determine the kinetic parameters for β-glucosidase (Aa-βG) from the thermoacidophilic bacterium Alicycyclobacillus acidocaldarius 22 using pure cellobiose as substrate. The experimental data were analyzed using the NonlinearModelFit routine of Mathematic v.8 (Wolfram Research) and v=kcat [S]/(KM+[S]) (kcat, KM, and [S] have their usual definitions).
Glucose formed at different time points from the reaction of Alicycyclobacillus acidocaldarius β-glucosidase with varied cellobiose concentration was quantified and used for steady-state kinetic analysis. The data were analysed using the NonlinearModelFit routine of Mathematic v.8 and v=kcat [S]/(KM+[S]), where kcat, KM, and [S] have their usual definitions.

[4] = system: Alicycyclobacillus acidocaldarius β-glucosidase; conditions: lacking error analysis; read-out: KM, previously reported; cited from earlier work
[5] = molecular target: T2, chloramphenicol acetyltransferase (CAT); conditions: 0.5 mM probe, 2 mM acetyl-CoA, 5 minutes; versus control lysate
Method: Enzymatic activity assay—Overnight cultures of E. coli DH1 harboring either pBbB8k-GFP or pBbB8k-CAT were diluted 1:10 in LB with 50 μg mL^−1 kanamycin, and grown for 1 hour at 37° C., after which they were induced with 0.2% (w/v) arabinose. After 2 hours of growth, 0.5 mL of the culture was centrifuged at ˜12000×g for 1 minute, the pellet was resuspended in 0.25 mL aqueous 50 mM sodium phosphate (pH 7.5) and sonicated for 30 seconds. Acetyl-CoA was added to a final concentration of 2 mM and 11 to a final concentration of 0.5 mM. The mixture was mixed and incubated at room temperature for 5 minutes, and subsequently quenched with an equal volume of methanol. A 0.3 μL droplet of the mixture was spotted onto a NIMS chip, and the excess liquid removed 5 seconds later by touching it with a Kimwipe (Kimberly-Clark). The spotted area was washed twice with 1 μL deionized water. The NIMS chip was taped to a modified standard MALDI plate, which was then loaded into an Applied Biosystems 4800 MALDI time of flight (TOF)//TOF mass spectrometer. […] Spectra were acquired in manual mode and positive polarity.

T2 sequence (P62577 whole entry, looked up): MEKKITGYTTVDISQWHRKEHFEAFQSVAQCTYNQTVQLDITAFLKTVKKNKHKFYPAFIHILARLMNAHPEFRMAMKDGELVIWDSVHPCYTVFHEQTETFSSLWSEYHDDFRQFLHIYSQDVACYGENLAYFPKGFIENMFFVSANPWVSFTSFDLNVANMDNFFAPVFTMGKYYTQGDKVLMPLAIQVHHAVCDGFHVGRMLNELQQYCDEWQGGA
T1 sequence (P14779 whole entry): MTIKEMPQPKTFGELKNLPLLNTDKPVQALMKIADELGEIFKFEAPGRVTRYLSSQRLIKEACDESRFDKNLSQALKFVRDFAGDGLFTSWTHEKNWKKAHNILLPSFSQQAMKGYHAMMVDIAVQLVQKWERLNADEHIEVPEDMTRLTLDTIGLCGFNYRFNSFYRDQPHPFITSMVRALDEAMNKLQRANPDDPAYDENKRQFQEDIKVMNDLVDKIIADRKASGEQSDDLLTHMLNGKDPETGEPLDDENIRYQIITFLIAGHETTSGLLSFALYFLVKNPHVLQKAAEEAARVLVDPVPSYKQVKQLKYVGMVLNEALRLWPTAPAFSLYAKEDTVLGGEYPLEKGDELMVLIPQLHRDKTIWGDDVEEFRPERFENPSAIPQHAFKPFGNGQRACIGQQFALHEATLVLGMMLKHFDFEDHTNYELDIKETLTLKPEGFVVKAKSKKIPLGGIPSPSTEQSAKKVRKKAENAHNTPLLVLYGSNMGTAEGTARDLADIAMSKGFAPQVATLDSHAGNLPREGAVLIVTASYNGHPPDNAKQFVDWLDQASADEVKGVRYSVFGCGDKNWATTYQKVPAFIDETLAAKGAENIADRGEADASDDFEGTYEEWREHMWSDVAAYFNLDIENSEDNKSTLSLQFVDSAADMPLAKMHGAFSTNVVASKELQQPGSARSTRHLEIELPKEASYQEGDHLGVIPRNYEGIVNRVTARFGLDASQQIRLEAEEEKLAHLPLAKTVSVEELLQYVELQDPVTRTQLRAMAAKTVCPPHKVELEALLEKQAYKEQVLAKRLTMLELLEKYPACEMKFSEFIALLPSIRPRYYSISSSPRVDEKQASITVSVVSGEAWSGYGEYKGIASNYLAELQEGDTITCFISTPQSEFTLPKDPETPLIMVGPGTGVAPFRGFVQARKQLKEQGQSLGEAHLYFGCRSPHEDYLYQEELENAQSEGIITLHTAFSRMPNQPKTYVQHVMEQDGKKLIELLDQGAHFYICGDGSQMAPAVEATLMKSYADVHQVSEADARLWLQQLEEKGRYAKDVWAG

Compound: [N-]=[N+]=NCCOC(=O)C1=CCCCC1 [CAEE, cyclohexenecarboxylate azidoethyl ester]
conversion of probe by cytochrome P450BM3 (NIMS mass shift) (cytochrome P450BM3): 16-mass unit shift relative to the GFP control

Compound: C#CCCCC(=O)N[C@H](CO)[C@H](O)c1ccc([N+](=O)[O-])cc1 [ChlorHexy, chloramphenicol 5-hexynamide]
CAT activity detected with probe [1]: CAT activity was detected
CAT activity detected with probe [2]: CAT activity was detected

Km [3]: 12.1 ± 4.6 mM
kcat [3]: 1430 ± 850 s⁻¹
Compound: O=C[C@H](O)[C@@H](O)[C@H](O[C@@H]1O[C@H](CO)[C@@H](O)[C@H](O)[C@H]1O)[C@H](O)CO [cellobiose]
Km [4]: ~10 mM

Compound: (1R,2R)-N-Nz-1-(4-nitrophenyl)propane-1,3-diol [Compound 11]
conversion of probe by CAT (NIMS mass shift) [5]: the peak shifts by 42 mass units, as expected from monoacetylation
